Laboratory results as given in patent US20240108006A1, “PESTICIDALLY ACTIVE HETEROAROMATIC COMPOUNDS” (SYNGENTA CROP PROTECTION AG, priority 2021, published 2024).

Experiments:
Spodoptera littoralis = test: Example B9: Spodoptera littoralis (Egyptian cotton leaf worm), cotton leaf discs, L1 larvae; format: in vivo; settings: foliar, 72 h, application rate of 200 ppm, 3 days after infestation, read-out: control in at least one of the three categories (mortality, anti-feedant effect, or growth inhibition)
Method in brief: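 Cotton leaf discs on agar sprayed with aqueous test solutions from 10,000 ppm DMSO stocks, dried, then infested with five L1 larvae. Mortality, anti-feeding and growth inhibition scored against untreated samples 3 days after infestation.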

Euschistus heros = test: Example B3: Euschistus heros (neotropical brown stink bug), soybean leaves, N2 nymphs; format: in vivo; settings: 120 h, application rate of 200 ppm, 5 days after infestation, read-out: control in at least one of the two categories (mortality or growth inhibition)
Protocol: Example B3: Euschistus heros (Neotropical Brown Stink Bug)
Soybean leaves on agar in 24-well microtiter plates were sprayed with aqueous test solutions prepared from 10,000 ppm DMSO stock solutions. After drying the leaves were infested with N2 nymphs. The samples were assessed for mortality and growth inhibition in comparison to untreated samples 5 days after infestation.
The following compounds gave an effect of at least 80% control in at least one of the two categories (mortality or growth inhibition) at an application rate of 200 ppm: […]

Diabrotica balteata = test: Example B2: Diabrotica balteata (corn root worm), maize sprouts, L2 larvae; format: in vivo; settings: 96 h, application rate of 200 ppm, 4 days after infestation, read-out: control in at least one of the two categories (mortality or growth inhibition)
Method in brief: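 Maize sprouts on agar sprayed with aqueous test solutions made from 10,000 ppm DMSO stocks, dried, then infested with 6 to 10 L2 larvae per well. Mortality and growth inhibition assessed versus untreated samples 4 days after infestation; application rate 200 ppm.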

Plutella xylostella = test: Example B8: Plutella xylostella (diamond back moth), artificial diet 24-well, eggs; format: in vivo; settings: 192 h, application rate of 200 ppm, 8 days after infestation, read-out: effect in at least one of the two categories (mortality or growth inhibition)
Method in brief: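 Artificial diet in 24-well plates treated with aqueous dilutions of DMSO stock (10,000 ppm stock) and dried, then infested with Plutella eggs. Mortality and growth inhibition scored versus untreated samples 8 days after infestation.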

Chilo suppressalis = test: Example B1: Chilo suppressalis (striped rice stemborer), artificial diet, L2 larvae; format: in vivo; settings: 144 h, application rate of 200 ppm, 6 days after infestation, read-out: control in at least one of the three categories (mortality, anti-feedant effect, or growth inhibition)
Method in brief: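 Artificial diet was treated with aqueous test solutions made from 10,000 ppm DMSO stocks, dried, then infested with L2 larvae (6-8 per well). Mortality, anti-feeding effect and growth inhibition were scored against untreated samples 6 days after infestation, and control was counted when any category exceeded untreated.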

Myzus persicae [1] = test: Example B7: Myzus persicae (green peach aphid), intrinsic activity, sucrose solution 24-well; format: in vivo; settings: 120 h, application rate of 12.5 ppm, 5 days after infestation, read-out: control (mortality)
Method in brief: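 Compounds from 10,000 ppm DMSO stocks were mixed into sucrose solution in wells at a rate of 12.5 ppm. Aphid-infested pea seedlings were placed on a Parafilm membrane over the solution, so aphids fed through it. Mortality was scored 5 days after infestation.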

[2] = system: Frankliniella occidentalis; test: Example B4: Frankliniella occidentalis (western flower thrips), feeding/contact activity; format: in vivo; settings: 168 h, application rate of 200 ppm, 7 days after infestation
Protocol: Example B4: Frankliniella occidentalis (Western Flower Thrips):Feeding/Contact Activity
Sunflower leaf discs were placed on agar in 24-well microtiter plates and sprayed with aqueous test solutions prepared from 10,000 DMSO stock solutions. After drying the leaf discs were infested with a Frankliniella population of mixed ages. The samples were assessed for mortality 7 days after infestation.

Myzus persicae [3] = test: Example B5: Myzus persicae (green peach aphid), feeding/contact activity; format: in vivo; settings: 144 h, application rate of 200 ppm, 6 days after infestation
Protocol: Example B5: Myzus persicae (Green Peach Aphid):Feeding/Contact Activity
Sunflower leaf discs were placed onto agar in a 24-well microtiter plate and sprayed with aqueous test solutions prepared from 10,000 ppm DMSO stock solutions. After drying, the leaf discs were infested with an aphid population of mixed ages. The samples were assessed for mortality 6 days after infestation.

melting point [°C]	Compound	percent control (mortality, anti-feedant effect or growth inhibition) at 200 ppm (Spodoptera littoralis) [%]	percent control (mortality or growth inhibition) at 200 ppm (Euschistus heros) [%]	percent effect (mortality or growth inhibition) at 200 ppm (Plutella xylostella) [%]	percent control (mortality, anti-feedant effect or growth inhibition) at 200 ppm (Chilo suppressalis) [%]	mortality at 12.5 ppm (Myzus persicae [1]) [%]	further results
–	C[C@H](NC(=O)Nc1cc(C(F)(F)F)c(Cl)cc1Br)c1nccnc1-c1ccc(C#N)cn1 [Example P246, 1-[2-bromo-4-chloro-5-(trifluoromethyl)phenyl]-3-[(1S)-1-[3-(5-cyano-2-pyridyl)pyrazin-2-yl]ethyl]urea]	≥ 80	≥ 80	–	–	–	percent control (mortality or growth inhibition) at 200 ppm (Diabrotica balteata): ≥ 80%
–	CC(NC(=O)Nc1ccc(C(F)(F)F)cc1C(F)(F)F)c1ncnn1-c1ncccn1 (stereo not shown) [Example P1, 1-[2,4-bis(trifluoromethyl)phenyl]-3-[1-(2-pyrimidin-2-yl-1,2,4-triazol-3-yl)ethyl]urea]	≥ 80	≥ 80	≥ 80	≥ 80	≥ 80	percent control (mortality or growth inhibition) at 200 ppm (Diabrotica balteata): ≥ 80%
236 to 249	C[C@H](NC(=O)Nc1cc(Cl)c(Cl)cc1I)c1ncnn1-c1ncccn1 (stereo in doubt)	–	–	–	–	–	–
–	COC(=O)c1cc(Cl)c(Cl)cc1NC(=O)N[C@@H](C)c1ncnn1-c1ncccn1 [Example P199, methyl 4,5-dichloro-2-[[(1S)-1-(2-pyrimidin-2-yl-1,2,4-triazol-3-yl)ethyl]carbamoylamino]benzoate]	–	–	–	–	–	mortality at 200 ppm [2]: ≥ 80%
138 to 140	C[C@@H]1CN(C(=O)c2ccc(-n3ncnc3[C@H](C)NC(=O)Nc3cc(C(F)(F)F)c(Cl)cc3Cl)nc2)C[C@H](C)O1	–	–	–	–	–	–
–	C[C@H](NC(=O)Nc1ccc(F)cc1C#N)c1ncnn1-c1ncccn1 [Example P62, 1-(2-cyano-4-fluoro-phenyl)-3-[(1S)-1-(2-pyrimidin-2-yl-1,2,4-triazol-3-yl)ethyl]urea]	–	≥ 80	–	–	–	mortality at 200 ppm (Myzus persicae [3]): ≥ 80%
–	Cc1cc2c(cc1NC(=O)N[C@@H](C)c1ncnn1-c1ncccn1)OCC(=O)N2 [Example P208, 1-(6-methyl-3-oxo-4H-1,4-benzoxazin-7-yl)-3-[(1S)-1-(2-pyrimidin-2-yl-1,2,4-triazol-3-yl)ethyl]urea]	–	–	–	–	–	mortality at 200 ppm [2]: ≥ 80%
106 to 108	C[C@H](NC(=S)Nc1cc(Cl)cc(C(F)(F)F)c1)c1ncnn1-c1ncccn1	–	–	–	–	–	–
–	C[C@H](NC(=O)Nc1cc(OC(F)(F)C(F)F)c(Cl)cc1Cl)c1ncnn1-c1ccc(=O)n(C)n1 [Example P269, 1-[2,4-dichloro-5-(1,1,2,2-tetrafluoroethoxy)phenyl]-3-[(1S)-1-[2-(1-methyl-6-oxo-pyridazin-3-yl)-1,2,4-triazol-3-yl]ethyl]urea]	≥ 80	≥ 80	–	–	≥ 80	percent control (mortality or growth inhibition) at 200 ppm (Diabrotica balteata): ≥ 80%
–	C[C@H](NC(=O)Nc1cc(F)c(Br)cc1OC(F)F)c1ncnn1-c1ncccn1 [Example P390, 1-[4-bromo-2-(difluoromethoxy)-5-fluoro-phenyl]-3-[(1S)-1-(2-pyrimidin-2-yl-1,2,4-triazol-3-yl)ethyl]urea]	≥ 80	≥ 80	≥ 80	≥ 80	≥ 80	percent control (mortality or growth inhibition) at 200 ppm (Diabrotica balteata): ≥ 80%
–	C[C@H](NC(=O)Nc1cc(OC(F)(F)Cl)c(Cl)cc1F)c1ncnn1-c1ncccn1 [Example P219, 1-[4-chloro-5-[chloro(difluoro)methoxy]-2-fluoro-phenyl]-3-[(1S)-1-(2-pyrimidin-2-yl-1,2,4-triazol-3-yl)ethyl]urea]	≥ 80	–	≥ 80	≥ 80	≥ 80	mortality at 200 ppm [2]: ≥ 80%; percent control (mortality or growth inhibition) at 200 ppm (Diabrotica balteata): ≥ 80%
–	C[C@H](NC(=O)Nc1cc(C#N)c(Cl)cc1F)c1ncnn1-c1ncccn1 [Example P182, 1-(4-chloro-5-cyano-2-fluoro-phenyl)-3-[(1S)-1-(2-pyrimidin-2-yl-1,2,4-triazol-3-yl)ethyl]urea]	≥ 80	≥ 80	≥ 80	≥ 80	≥ 80	–
124 to 127	CC(NC(=O)Nc1cc(C(F)(F)F)cc(C(F)(F)F)c1)c1ncnn1-c1ncccn1 (stereo not shown)	–	–	–	–	–	–
220 to 222	C[C@H](NC(=O)Nc1ccc(Br)c(Br)c1)c1nccnc1-c1ncccn1	–	–	–	–	–	–
207 to 209	C[C@@H](c1ncnn1-c1ncccn1)N1CCN(c2cc(OC(F)(F)C(F)F)c(Cl)cc2Cl)C1=O	–	–	–	–	–	–
–	C[C@H](NC(=O)Nc1cnc(Br)cc1Br)c1ncnn1-c1ncccn1 [Example P55, 1-(4,6-dibromo-3-pyridyl)-3-[(1S)-1-(2-pyrimidin-2-yl-1,2,4-triazol-3-yl)ethyl]urea]	≥ 80	≥ 80	≥ 80	≥ 80	≥ 80	–
183 to 186	C[C@H](NC(=O)Nc1cnc(C(F)(F)F)cc1I)c1ncnn1-c1ncccn1	–	–	–	–	–	–
–	C[C@H](NC(=O)Nc1cnc(C(F)(F)F)cc1Br)c1ncnn1-c1ncccn1 [Example P280, 1-[4-bromo-6-(trifluoromethyl)-3-pyridyl]-3-[(1S)-1-(2-pyrimidin-2-yl-1,2,4-triazol-3-yl)ethyl]urea]	≥ 80	≥ 80	≥ 80	≥ 80	≥ 80	mortality at 200 ppm [2]: ≥ 80%; percent control (mortality or growth inhibition) at 200 ppm (Diabrotica balteata): ≥ 80%
–	Cc1cccc(Cl)c1NC(=O)N[C@@H](C)c1ncnn1-c1ncccn1 [Example P71, 1-(2-chloro-6-methyl-phenyl)-3-[(1S)-1-(2-pyrimidin-2-yl-1,2,4-triazol-3-yl)ethyl]urea]	–	–	–	–	–	mortality at 200 ppm [2]: ≥ 80%
–	C[C@H](NC(=O)Nc1ccc(C(F)(F)F)cc1I)c1ncnn1-c1ncccn1 [Example P72, 1-[2-iodo-4-(trifluoromethyl)phenyl]-3-[(1S)-1-(2-pyrimidin-2-yl-1,2,4-triazol-3-yl)ethyl]urea]	≥ 80	≥ 80	≥ 80	≥ 80	≥ 80	–
–	Cc1cc(C(F)(F)F)ncc1NC(=O)N[C@@H](C)c1ncnn1-c1ncccn1 [Example P328, 1-[4-methyl-6-(trifluoromethyl)-3-pyridyl]-3-[(1S)-1-(2-pyrimidin-2-yl-1,2,4-triazol-3-yl)ethyl]urea]	–	≥ 80	–	≥ 80	≥ 80	mortality at 200 ppm (Myzus persicae [3]): ≥ 80%
–	C[C@H](NC(=O)Nc1cc(OCc2ccc(Cl)cn2)c(Cl)cc1Cl)c1ncnn1-c1ncccn1 [Example P142, 1-[2,4-dichloro-5-[(5-chloro-2-pyridyl)methoxy]phenyl]-3-[(1S)-1-(2-pyrimidin-2-yl-1,2,4-triazol-3-yl)ethyl]urea]	–	–	–	–	–	mortality at 200 ppm [2]: ≥ 80%
